Data taken from patent US20200278355A1, “CONJUGATED PROTEINS AND USES THEREOF” (THE SCRIPPS RESEARCH INSTITUTE, priority 2017, published 2020).

Biological target: T1, NUDT8 (Homo sapiens, UniProt Q8WV74)
T1 construct: H460 cells or H460 cells expressing luciferase in a 10 cm plate were incubated with indicated compounds; endogenous in cells; host or cells: H460
Assay: isoTOP-ABPP of compound-treated H460 cells: NUDT8
Format: cell-based
Details: NUDT8 C207; 40 μM
Protocol: For analysis of NR0B1 ligands or control compound reactivity, H460 cells or H460 cells expressing luciferase in a 10 cm plate were incubated with indicated compounds in serum/dye-free RPMI for 3 hours at 37° C. Cells were washed once ice-cold PBS and lysed in 1% Triton X-100 dissolved in PBS with protease inhibitors (Sigma) by sonication. Samples were clarified by centrifugation for 10 min at 16,000×g. Lysate was adjusted to 1.5 mg ml^−1 in 500 μL.
Samples were labeled for 1 h at ambient temperature with 100 μM iodoacetamide alkyne (1, IA-alkyne, 5 μL of 10 mM stock in DMSO). Samples were conjugated by copper-catalyzed azide-alkyne cycloaddition (CuAAC) to isotopically labeled, TEV-cleavable tags (TEV-tags). Heavy CuAAC reaction mixtures was added to the DMSO-treated or shGFP control samples and light CuAAC reaction mixture was added to compound-treated or shNRF2 samples. The CuAAC reaction mixture consisted of TEV tags (light or heavy, 10 μL of 5 mM stocks in DMSO, final concentration=100 μM), 1 mM tris(2-carboxyethyl)phosphine hydrochloride (TCEP; fresh 50× stock in water, final concentration=1 mM), ligand (17× stock in DMSO:t-butanol 1:4, final concentration=100 μM) and 1 mM CuSO4 (50× stock in water, final concentration=1 mM). The samples were allowed to react for 1 h at which point the samples were centrifuged (16,000×g, 5 min, 4° C.). […]

T1 sequence (Q8WV74 whole entry): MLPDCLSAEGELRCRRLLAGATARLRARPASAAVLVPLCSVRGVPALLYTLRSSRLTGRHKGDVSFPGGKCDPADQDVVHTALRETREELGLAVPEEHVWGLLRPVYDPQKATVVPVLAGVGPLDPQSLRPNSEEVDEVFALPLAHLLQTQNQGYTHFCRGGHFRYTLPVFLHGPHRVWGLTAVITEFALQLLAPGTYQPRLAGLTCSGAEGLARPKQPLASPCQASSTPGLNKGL

## O=C(c1ccc(N2CCOCC2)cc1)N1CCCC(N(Cc2ccccc2)C(=O)CCl)CC1 (stereo not shown) [BPK-29, N-benzyl-2-chloro-N-(1-(4-morpholinobenzoyl)azepan-4-yl)acetamide]
  BPK-29-competed isoTOP-ABPP analysis: Yes (Competed defined as showing R value ≥ 3.0 at 40 μM of test compound)
